Results from patent US11207409B2, “X-RAY psoralen activated cancer therapy (X-PACT) with associated treatments” (priority 2017, dated 2021).

Test system: murine tumor cell lines (breast-4T1, glioma-CT2A, and sarcoma KP15B8)
Experimental: Guava Annexin V flow cell cytometry was used to quantify cytotoxicity in 3 murine tumor cell lines (breast-4T1, glioma-CT2A, and sarcoma KP15B8). In-vitro X-PACT studies were conducted on cells prepared in the following manner. Cells were incubated in appropriate growing media and buffers before being trypsinized and plated evenly onto twelve (12) well plates for 24 hours. About 20 minutes prior to X-PACT irradiation, the wells of each plate were exposed to the following combinations of additives: (1) control ˜cells only with no additives, (2) UVADEX only, (3) phosphors only, (4) UVADEX+phosphors. […] The plates were then irradiated with x-rays by placing the plate at a known distance from the x-ray source (e.g., 50 cm). […]
Two primary flow cytometry metrics were used to evaluate the X-PACT treatments, both determined at 48h after X-PACT treatment. […] The first metric is metabolically viable cell count (or cell viability) determined from the number of whole cells per well as determined using forward scattering (FSC). […] (All wells on a given plate receive the same dose.) The second metric is Annexin V (+) signal, which is the fraction of the metabolically viable cells which expressed a positive Annexin V signal as determined by flow cell cytometry, and include any cells advancing toward early or late apoptotic cell death. […]

Row | Substance | % Viability (1-Toxicity)
1 | Zn2SiO4:Mn | 75%
2 | 3Ca3(PO4)2•Ca(Fl,Cl)2:Sb^3+,Mn^2+ [GTP 4300] | 70%
